Here are results for 31 compounds from patent publication US11339156B2, “3-(1H-pyrazol-4-yl)pyridine allosteric modulators of the M4 muscarinic acetylcholine receptor” (Merck Sharp & Dohme Corp., priority 2017, dated 2022).

One assay concerns the target T1, human M4 muscarinic acetylcholine receptor (Homo sapiens, UniProt P08173).
T1 construct: expressed in transfected cells
T1 sequence (P08173 1-479): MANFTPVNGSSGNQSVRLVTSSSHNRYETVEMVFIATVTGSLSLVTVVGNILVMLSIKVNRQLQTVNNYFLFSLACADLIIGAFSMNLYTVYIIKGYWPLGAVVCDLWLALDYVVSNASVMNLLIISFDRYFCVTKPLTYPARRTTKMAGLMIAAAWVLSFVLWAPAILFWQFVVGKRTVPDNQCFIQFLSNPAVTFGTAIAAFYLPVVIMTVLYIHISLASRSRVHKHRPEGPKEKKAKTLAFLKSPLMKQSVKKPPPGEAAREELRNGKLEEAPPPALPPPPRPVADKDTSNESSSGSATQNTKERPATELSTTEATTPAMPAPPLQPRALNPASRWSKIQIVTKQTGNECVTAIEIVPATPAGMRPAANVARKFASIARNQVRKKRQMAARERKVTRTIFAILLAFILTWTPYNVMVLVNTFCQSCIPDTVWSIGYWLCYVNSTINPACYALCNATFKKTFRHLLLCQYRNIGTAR
Put plainly: human FLIPR-based M4 PAM assay (CHO-K1 cells with human M4 receptor and Gαqi5, calcium dye fluorescence). The assay is classed as cell-based. As to conditions: inflection point of 4 parameter logistic fit; acetylcholine added at 20% of maximum response; read-out: M4PAM IP. The method in brief:
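CHO-K1 cells were loaded with calcium dye at 37 °C for ~1 h. Fluorescence (ex 470–495/em 515–575 nm) was read for 4 min after test compound at increasing concentrations, then 3.5 min after acetylcholine at an EC20; sometimes a third addition at EC70 followed. The value is the inflection point of a 4-parameter logistic fit.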
As to `Cc1nc2cc(-c3ncccc3-c3cnn(CC4(F)CC(F)(F)C4)c3)ccn2n1` [Example 130, 2-methyl-7-(3-(1-((1,3,3-trifluorocyclobutyl)methyl)-1H-pyrazol-4-yl)pyridin-2-yl)-[1,2,4]triazolo[1,5-a]pyridine], the EC50 worked out at 381 nM.

Regarding `CC(C)CCn1cc(-c2ccc(Cl)nc2-c2ccc3c(c2)C(=O)N(CC(F)(F)F)C3)cn1` [Example 111, 6-chloro-3-(1-isopentyl-1H-pyrazol-4-yl)-2-(3-oxo-2-(2,2,2-trifluoroethyl)isoindolin-5-yl)pyridin-1-ium], the EC50 turned out to be 40.2 nM.

Regarding `N#Cc1ccc(-c2cnn(CC3CCC3)c2)c(-c2ccn3ccnc3c2)n1` [Example 93, 5-[1-(cyclobutylmethyl)-1H-pyrazol-4-yl]-6-imidazo[1,2-a]pyridin-7-ylpyridine-2-carbonitrile], the EC50 was 27.5 nM.

As to `Cc1cn2ccc(-c3nc(C#N)ccc3-c3cnn(CC(C)(C)CO)c3)cc2n1` [Example 127, 5-(1-(3-hydroxy-2,2-dimethylpropyl)-1H-pyrazol-4-yl)-6-(2-methylimidazo[1,2-a]pyridin-7-yl)picolinonitrile], the EC50 is 139 nM.

Take `CC(C)CCn1cc(-c2cccnc2-c2ccc3c(c2)C(=O)NC3)cn1` [Example 74, 6-{3-[1-(3-methylbutyl)-1H-pyrazol-4-yl]pyridin-2-yl}-2,3-dihydro-1H-isoindol-1-one]: the EC50 is 337 nM.

As to `CN1Cc2ccc(-c3nc(C#N)ccc3-c3cnn(CC4(C(F)(F)F)CC4)c3)cc2C1=O` [Example 52, 6-(2-methyl-3-oxoisoindolin-5-yl)-5-(1-((1-(trifluoromethyl)cyclopropyl)methyl)-1H-pyrazol-4-yl)picolinonitrile], the EC50 stood at 20.7 nM.

Regarding `N#Cc1ccc(-c2cnn(CC(F)(F)C(F)(F)F)c2)c(-c2ccn3ccnc3c2)n1` [Example 42, 6-imidazo[1,2-a]pyridin-7-yl-5-[1-(2,2,3,3,3-pentafluoropropyl)-1H-pyrazol-4-yl]pyridine-2-carbonitrile], the EC50 turned out to be 151 nM.

Take `Cc1ccc(-c2cnn(CC3(C)CCCCC3)c2)c(-c2cnc3c(c2)ncn3C)n1` [Example 5, 3-methyl-6-(6-methyl-3-{1-[(1-methylcyclohexyl)methyl]-1H-pyrazol-4-yl}pyridin-2-yl)-3H-imidazo[4,5-b]pyridine]: the EC50 turned out to be 38.8 nM.

For the compound `Cc1ccc(-c2cnn(CC3(C)CCCCC3)c2)c(-c2ccc3cn(C)nc3c2)n1` [Example 2, 2-methyl-6-(6-methyl-3-{1-[(1-methylcyclohexyl)methyl]-1H-pyrazol-4-yl}pyridin-2-yl)-2H-indazole], the EC50 was 76 nM.

Consider `N#Cc1ccc(-c2cnn(CC3CC34CC4)c2)c(-c2ccn3ccnc3c2)n1` (stereo not shown) [Example 51, 6-imidazo[1,2-a]pyridin-7-yl-5-[1-(spiro[2.2]pent-1-ylmethyl)-1H-pyrazol-4-yl]pyridine-2-carbonitrile], for which the EC50 was determined as 54.6 nM.

In the case of `Cc1nc(-c2ccc3c(c2)nc(C)n3C)c(-c2cnn(CC(C)(C)C(F)(F)F)c2)cc1F` [Example 131, 5-(5-fluoro-6-methyl-3-(1-(3,3,3-trifluoro-2,2-dimethylpropyl)-1H-pyrazol-4-yl)pyridin-2-yl)-1,2-dimethyl-1H-benzo[d]imidazole], the EC50 is 77.3 nM.

As to `CC(C)CCn1cc(-c2ccc(Cl)nc2-c2ccc3c(c2)C(=O)NC3)cn1` [Example 110, 6-(6-chloro-3-(1-isopentyl-1H-pyrazol-4-yl)pyridin-2-yl)isoindolin-1-one], the EC50 is 40.2 nM.

As for `CC(C)CCn1cc(-c2ccc(Cl)nc2-c2ccc3c(c2)C(=O)N(Cc2ccccc2F)C3)cn1` [Example 113, 6-{6-chloro-3-[1-(3-methylbutyl)-1H-pyrazol-4-yl]pyridin-2-yl}-2-(2-fluorobenzyl)-2,3-dihydro-1H-isoindol-1-one], the EC50 was 54 nM.

On to `CC(C)(C)Cn1cc(-c2ccc(C#N)nc2-c2ccn3c(F)cnc3c2)cn1` [Example 82, 5-[1-(2,2-dimethylpropyl)-1H-pyrazol-4-yl]-6-(3-fluoroimidazo[1,2-a]pyridin-7-yl)pyridine-2-carbonitrile], for which the EC50 was determined as 51.6 nM.

Turning to `Cc1ccc(-c2cnn(CCC(C)C)c2F)c(-c2ccn3ccnc3c2)n1` [Example 95, 7-{3-[5-fluoro-1-(3-methylbutyl)-1H-pyrazol-4-yl]-6-methylpyridin-2-yl}imidazo[1,2-a]pyridine], the EC50 is 79.9 nM.

As to `CCC(C)(C)Cn1cc(-c2ccc(C#N)nc2-c2ccn3ccnc3c2)cn1` [Example 91, 5-[1-(2,2-dimethylbutyl)-1H-pyrazol-4-yl]-6-imidazo[1,2-a]pyridin-7-ylpyridine-2-carbonitrile], the EC50 is 17.1 nM.

On to `Cc1ccc(-c2cnn(CC3CCC(F)(F)CC3)c2)c(-c2ccc3c(c2)C(=O)N(CC2CC2)C3)n1` [Example 14, 2-(cyclopropylmethyl)-6-(3-{1-[(4,4-difluorocyclohexyl)methyl]-1H-pyrazol-4-yl}-6-methylpyridin-2-yl)-2,3-dihydro-1H-isoindol-1-one], for which the EC50 is 48.8 nM.

As for `CC(C)C1(Cn2cc(-c3ccc(C#N)nc3-c3ccn4ccnc4c3)cn2)CC1` [Example 36, 6-imidazo[1,2-a]pyridin-7-yl-5-(1-{[1-(1-methylethyl)cyclo-propyl]methyl}-1H-pyrazol-4-yl)pyridine-2-carbonitrile], the EC50 came out at 37.4 nM.

For the compound `Cc1cn2ccc(-c3nc(C#N)ccc3-c3cnn(CC(C)(C)F)c3)cc2n1` [Example 122, 5-(1-(2-fluoro-2-methylpropyl)-1H-pyrazol-4-yl)-6-(2-methylimidazo[1,2-a]pyridin-7-yl)picolinonitrile], the EC50 is 78.1 nM.

As to `COCc1nc2cc(-c3nc(C#N)ccc3-c3cnn(CC(C)(C)C)c3)ccn2n1` [Example 105, 5-[1-(2,2-dimethylpropyl)-1H-pyrazol-4-yl]-6-[2-(methoxymethyl)[1,2,4]triazolo[1,5-a]pyridin-7-yl]pyridine-2-carbonitrile], the EC50 came out at 70.5 nM.

As for `Cc1nc2cc(-c3nc(C#N)ccc3-c3cnn(C[C@]4(F)C[C@@H](F)C4)c3)ccc2n1C` [Example 128, 5-(1-(((1s,3s)-1,3-difluorocyclobutyl)methyl)-1H-pyrazol-4-yl)-6-(1,2-dimethyl-1H-benzo[d]imidazol-5-yl)picolinonitrile], the EC50 was 48 nM.

Consider `Cc1nc2cc(-c3nc(C#N)ccc3-c3cnn(CCC(F)(F)C(F)F)c3)ccc2n1C` [Example 30, 6-(1,2-dimethyl-1H-benzimidazol-5-yl)-5-[1-(3,3,4,4-tetrafluorobutyl)-1H-pyrazol-4-yl]pyridine-2-carbonitrile], for which the EC50 was found to be 102 nM.

Regarding `N#Cc1ccc(-c2cnn(CCC3CC3)c2)c(-c2ccn3ccnc3c2)n1` [Example 45, 5-[1-(2-cyclopropylethyl)-1H-pyrazol-4-yl]-6-imidazo[1,2-a]pyridin-7-ylpyridine-2-carbonitrile], the EC50 worked out at 35.6 nM.

In the case of `Cc1nc2cc(-c3nc(C#N)ccc3-c3cnn(CC(C)(C)CC(F)F)c3)ccc2n1C` [Example 34, 5-[1-(4,4-difluoro-2,2-dimethylbutyl)-1H-pyrazol-4-yl]-6-(1,2-dimethyl-1H-benzimidazol-5-yl)pyridine-2-carbonitrile], the EC50 is 54.2 nM.

Regarding `Cc1cn2ccc(-c3nc(C#N)ccc3-c3cnn(CC4(F)CCC4)c3)cc2n1` [Example 118, 5-(1-((1-fluorocyclobutyl)methyl)-1H-pyrazol-4-yl)-6-(2-methylimidazo[1,2-a]pyridin-7-yl)picolinonitrile], the EC50 was found to be 30.7 nM.

With `Cc1ccc(-c2cnn(CC3(C)CCCCC3)c2)c(-c2ccc3cn[nH]c3c2)n1` [Example 3, 6-(6-methyl-3-{1-[(1-methylcyclohexyl)methyl]-1H-pyrazol-4-yl}pyridin-2-yl)-1H-indazole], the EC50 is 66.6 nM.

For the compound `Cc1nc2cc(-c3nc(C#N)ccc3-c3cnn(CCC(C)(F)F)c3)ccc2n1C` [Example 27, 5-[1-(3,3-difluorobutyl)-1H-pyrazol-4-yl]-6-(1,2-dimethyl-1H-benzimidazol-5-yl)pyridine-2-carbonitrile], the EC50 is 74 nM.

As to `Cc1cn2ccc(-c3nc(C#N)ccc3-c3cnn(CC4(C(F)F)CC4)c3)cc2n1` [Example 58, 5-(1-{[1-(difluoromethyl)cyclo-propyl]methyl}-1H-pyrazol-4-yl)-6-(2-methylimidazo[1,2-a]pyridin-7-yl)pyridine-2-carbonitrile], the EC50 amounted to 49.1 nM.

Take `Cc1cc(-c2cnn(CC3(C(F)(F)F)CC3)c2)c(-c2ccn3ccnc3c2)nc1Cl` [Example 60, 7-[6-chloro-5-methyl-3-(1-{[1-(trifluoromethyl)cyclo-propyl]methyl}-1H-pyrazol-4-yl)pyridin-2-yl]imidazo[1,2-a]pyridine]: the EC50 turned out to be 64.3 nM.

`Cc1nc2cc(-c3nc(C#N)ccc3-c3cnn(CC4(C(F)(F)F)CC4)c3)ccc2o1` [Example 55, 6-(2-methyl-1,3-benzoxazol-5-yl)-5-(1-{[1-(trifluoromethyl)cyclo-propyl]methyl}-1H-pyrazol-4-yl)pyridine-2-carbonitrile]: the EC50 turned out to be 176 nM.

Still in this assay, the particulars now being: read-out: HuM4PAM.
For the compound `CC(C)(F)Cn1cc(-c2ccc(C#N)nc2-c2ccn3ccnc3c2)cn1` [Example 121, 5-(1-(2-fluoro-2-methylpropyl)-1H-pyrazol-4-yl)-6-(imidazo[1,2-a]pyridin-7-yl)picolinonitrile], the EC50 was found to be 107 nM.
